Assay results reported in patent US6838414B2, “Substituted aryl sulphonyl(thio)ureas used as herbicides” (Bayer Aktiengesellschaft, priority 1996, dated 2005).

Columns and labels:
Type in all cases: in vivo
Alopecurus [1] = assay: Pre-emergence test/greenhouse; conditions: after three weeks
Procedure: (§1) To produce a suitable preparation of active compound, 1 part by weight of active compound is mixed with the stated amount of solvent, the stated amount of emulsifier is added and the concentrate is diluted with water to the desired concentration.
(§2) Seeds of the test plants are sown in normal soil. After about 24 hours, the soil is sprayed with the preparation of the active compound. Advantageously, the amount of water per unit area is kept constant. The active compound concentration in the preparation is not important, only the active compound application rate per unit area is critical.
(§3) After three weeks, the degree of damage to the plants is rated in % damage in comparison with the development of the untreated control.
(§4) The figures denote: • 0%=no effect (like untreated control) • 100%=total destruction

Amaranthus = assay: Pre-emergence test/greenhouse; conditions: after three weeks
Procedure: as §1, §2, §3, §4

Chenopodium = assay: Pre-emergence test/greenhouse; conditions: after three weeks
Procedure: as §1, §2, §3, §4

Lolium = assay: Pre-emergence test/greenhouse; conditions: after three weeks
Procedure: as §1, §2, §3, §4

Sorghum = assay: Pre-emergence test/greenhouse; conditions: after three weeks
Procedure: as §1, §2, §3, §4

Stellaria = assay: Pre-emergence test/greenhouse; conditions: after three weeks
Procedure: as §1, §2, §3, §4

weeds [2] = assay: Pre-emergence test (overall statement); conditions: application rates between 30 g and 125 g of a.i. per hectare
Procedure: as §1, §2, §3, §4

Abutilon = assay: Post-emergence test/greenhouse; conditions: rated after three weeks vs untreated control
Procedure: as §1
(§5) Test plants which have a height of 5-15 cm are sprayed with the preparation of the active compound in such a way as to apply the particular amounts of active compound desired per unit area. The concentration of the spray liquor is chosen so that the amounts of active compound desired in each case are applied in 1000 l of water/ha.
as §3, §4

Alopecurus [3] = assay: Post-emergence test/greenhouse; conditions: rated after three weeks vs untreated control
Procedure: as §1, §5, §3, §4

Echinochloa = assay: Post-emergence test/greenhouse; conditions: rated after three weeks vs untreated control
Procedure: as §1, §5, §3, §4

Matricaria = assay: Post-emergence test/greenhouse; conditions: rated after three weeks vs untreated control
Procedure: as §1, §5, §3, §4

weeds [4] = assay: Post-emergence test/greenhouse
Procedure: as §1, §5, §3, §4

[5] = application rate 30 g of ai./ha
[6] = application rate 60 g of ai./ha

| Structure (SMILES) | Alopecurus, % damage (Alopecurus [1]; 60 g of ai./ha) | Amaranthus, % damage (Amaranthus; 60 g of ai./ha) | Chenopodium, % damage (Chenopodium; 60 g of ai./ha) | Lolium, % damage (Lolium; 60 g of ai./ha) | Sorghum, % damage (Sorghum; 60 g of ai./ha) | Steltaria, % damage (Stellaria; 60 g of ai./ha) | activity against weeds (weeds [2]) | degree of damage to the plants, Abutilon (Abutilon; [5]) | degree of damage to the plants, Alopecurus (Alopecurus [3]; [5]) | degree of damage to the plants, Echinochloa (Echinochloa; [5]) | degree of damage to the plants, Matricaria (Matricaria; [5]) | activity against weeds (weeds [4]) | Alopecurus, % damage (Alopecurus [1]; 30 g of ai./ha) | Amaranthus, % damage (Amaranthus; 30 g of ai./ha) | Chenopodium, % damage (Chenopodium; 30 g of ai./ha) | Lolium, % damage (Lolium; 30 g of ai./ha) | Sorghum, % damage (Sorghum; 30 g of ai./ha) | Steltaria, % damage (Stellaria; 30 g of ai./ha) | degree of damage to the plants, Abutilon (Abutilon; [6]) | degree of damage to the plants, Alopecurus (Alopecurus [3]; [6]) | other results |
| --- | --- | --- | --- | --- | --- | --- | --- | --- | --- | --- | --- | --- | --- | --- | --- | --- | --- | --- | --- | --- | --- |
| CCOc1cccc(C(F)(F)F)c1S(=O)(=O)NC(=O)Nc1nc(OC)nc(OC)n1 [Example 7] | 100% | 95% | 100% | 95% | 100% | 95% | very strong activity against weeds | 95% | 95% | 95% | 100% | very strong activity against weeds |  |  |  |  |  |  |  |  |  |
| CCCOc1cccc(C(F)(F)F)c1S(=O)(=O)NC(=O)Nc1nc(C)nc(OC)n1 [Example 9] |  |  |  |  |  |  | very strong activity against weeds |  |  |  |  | very strong activity against weeds | 100% | 100% | 100% | 100% | 90% | 100% |  |  | degree of damage to the plants, Abutilon (Abutilon; application rate 8 g of ai./ha): 100%; degree of damage to the plants, Alopecurus (Alopecurus [3]; application rate 8 g of ai./ha): 90%; degree of damage to the plants, Echinochloa (Echinochloa; application rate 8 g of ai./ha): 80%; degree of damage to the plants, Matricaria (Matricaria; application rate 8 g of ai./ha): 95% |
| COc1nc(C)nc(NC(=O)NS(=O)(=O)c2c(OC(C)C)cccc2C(F)(F)F)n1 [Example 12] |  |  |  |  |  |  | very strong activity against weeds | 95% | 95% | 90% | 100% | very strong activity against weeds | 100% | 100% | 95% | 100% | 100% | 100% |  |  |  |
| COc1cc(Cl)nc(NC(=O)NS(=O)(=O)c2c(OC)cccc2C(F)(F)F)n1 [Example 15] | 100% | 95% | 100% | 95% | 95% | 95% | very strong activity against weeds |  |  |  |  | very strong activity against weeds |  |  |  |  |  |  | 95% | 70% | degree of damage to the plants, Echinochloa (Echinochloa; [6]): 90%; degree of damage to the plants, Matricaria (Matricaria; [6]): 100% |
| CCOc1cccc(C)c1S(=O)(=O)NC(=O)Nc1nc(C)cc(OC)n1 [Example 27] | 100% | 100% | 100% | 100% | 100% | 100% | very strong activity against weeds |  |  |  |  | very strong activity against weeds |  |  |  |  |  |  | 100% | 95% | degree of damage to the plants, Echinochloa (Echinochloa; [6]): 95%; degree of damage to the plants, Matricaria (Matricaria; [6]): 90% |
| CCOc1cccc(C)c1S(=O)(=O)NC(=O)Nc1nc(OC)nc(OC)n1 [Example 31] | 95% | 95% | 100% | 100% | 90% | 95% | very strong activity against weeds |  |  |  |  | very strong activity against weeds |  |  |  |  |  |  | 100% | 80% | degree of damage to the plants, Echinochloa (Echinochloa; [6]): 80%; degree of damage to the plants, Matricaria (Matricaria; [6]): 100% |
| CCOc1cccc(C)c1S(=O)(=O)NC(=O)Nc1nc(C)nc(OC)n1 [Example 32] | 95% | 100% | 100% | 100% | 95% | 100% | very strong activity against weeds |  |  |  |  | very strong activity against weeds |  |  |  |  |  |  | 100% | 70% | degree of damage to the plants, Echinochloa (Echinochloa; [6]): 90%; degree of damage to the plants, Matricaria (Matricaria; [6]): 100% |
| COc1nc(NC(=O)NS(=O)(=O)c2c(C)cccc2OC(C)C)nc(OC)n1 [Example 38] |  |  |  |  |  |  | very strong activity against weeds | 95% | 60% | 70% | 95% | very strong activity against weeds | 100% | 80% | 100% | 100% | 100% | 100% |  |  |  |
| COc1nc(NC(=O)NS(=O)(=O)c2c(C)cccc2OC(C)C)nc(OC)n1 [Example 39] |  |  |  |  |  |  | very strong activity against weeds | 100% | 90% | 95% | 100% | very strong activity against weeds | 100% | 100% | 100% | 100% | 100% | 100% |  |  |  |
| COc1nc(C)nc(NC(=O)NS(=O)(=O)c2c(C)cccc2OC)n1 [Example 40] |  |  |  |  |  |  | very strong activity against weeds | 95% | 100% | 95% | 100% | very strong activity against weeds | 100% | 100% | 100% | 100% | 100% | 100% |  |  |  |
| COc1cccc(C)c1S(=O)(=O)NC(=O)Nc1nc(C)cc(C)n1 [Example 41] |  |  |  |  |  |  | very strong activity against weeds | 90% | 60% | 95% | 70% | very strong activity against weeds | 95% | 60% | 100% | 100% | 100% | 80% |  |  |  |
| COc1cc(C)nc(NC(=O)NS(=O)(=O)c2c(C)cccc2OC)n1 [Example 43] |  |  |  |  |  |  | very strong activity against weeds | 100% | 60% | 95% | 100% | very strong activity against weeds | 100% | 100% | 100% | 100% | 100% | 100% |  |  |  |
| COc1cc(OC)nc(NC(=O)NS(=O)(=O)c2c(C)cccc2OC)n1 [Example 44] |  |  |  |  |  |  | very strong activity against weeds | 100% | 60% | 90% | 100% | very strong activity against weeds | 100% | 100% | 100% | 100% | 100% | 100% |  |  |  |
| CCCOc1cccc(C)c1S(=O)(=O)NC(=O)Nc1nc(OC)nc(OC)n1 [Example 48] | 100% | 100% | 100% | 100% | 100% | 100% | very strong activity against weeds |  |  |  |  | very strong activity against weeds |  |  |  |  |  |  | 100% | 95% | degree of damage to the plants, Echinochloa (Echinochloa; [6]): 70%; degree of damage to the plants, Matricaria (Matricaria; [6]): 90% |
| CCCOc1cccc(C)c1S(=O)(=O)NC(=O)Nc1nc(C)nc(OC)n1 [Example 49] |  |  |  |  |  |  | very strong activity against weeds | 100% | 90% | 80% | 100% | very strong activity against weeds | 100% | 100% | 100% | 100% | 100% | 100% |  |  |  |
